In brackets after ≈: the same amount, converted by molar mass. Several values for one entry are separate records, joined by “and”; a condition that tells them apart may be missing. Identical values can stand only once.
System: Staphylococcus aureus ATCC 29213
Assay: Antibacterial susceptibility testing, IC90 determination (STA)
Type: cell-based
Conditions: Staphylococcus aureus, ATCC29213, Staphylococcus aureus ATCC 29213, broth microdilution, resazurin; read-out: STA (361.159) IC90
Protocol: (§1) The following bacteria were used: Staphylococcus aureus ATCC 29213, methicillin-resistant Staphylococcus aureus (MRSA) ATCC 700788 and Escherichia coli ATCC 35218. The bacteria used in this study were grown overnight in flasks containing 100 ml Mueller-Hinton broth (Difco cat. nr. 0757-17) in sterile de-ionized water, with shaking, at 37° C. Stocks were store at −70° C. until use.
(§2) Bacteria were incubated on a tryptic soy agar plate containing 5% sheep blood (Becton Dickinson cat. nr. 254053) for 18-24 hours at 35° C. in aerobic conditions (first passage). For the second passage, fresh Mueller-Hinton broth is inoculated with 5-10 colonies and grown overnight at 35° C. until turbidity (reaching log-phase) in aerobic conditions is reached. The bacterial suspension is then adjusted to 0.5 McFarland density and further diluted 1:100 in Mueller Hinton broth medium. This is used as inoculum.
The result(s) are depicted the table below (for STA ATCC 29213).
(§3) MIC assays were performed by the broth microdilution method in a 96-well format (flat-bottom microtitre plates) with a final volume of 0.1 ml Mueller Hinton broth containing two-fold serial dilutions of compounds and inoculated with 5×10^5 CFU/ml of bacteria (standard inoculum size according to CLSI guidelines). Inhibitors are typically varied over the range of 63 to 0.49 μM. The final DMSO concentration in the assay was 1.25% (maximum tolerable DMSO concentration=6%). In the assays where the effect of human serum on the activity of the compounds against S. aureus was tested, human serum was added at a final concentration of 10%. The plates were incubated at 35° C. for 16-20 hours. At the end of incubation the bacterial growth was quantified fluorometrically. For this, resazurin was added to all wells and the plates were re-incubated. The incubation time is dependent on the type of bacteria. A change in color from blue to pink indicated the growth of bacteria. The fluorescence was read in computer-controlled fluorometer (Fluoroskan Ascent FL, Labsystems) at an excitation wavelength 540 nm and an emission wavelength of 590 nm. The % growth inhibition achieved by the compounds was calculated according to standard methods. The IC90 (expressed in μg/ml) was defined as the 90% inhibitory concentration for bacterial growth. A panel of reference compounds were simultaneously tested for QC approval.

Row | Compound | IC90
1 | COC(=O)CCC(=O)Nc1ccc(/C=C/C(=O)N2CC3C=C(c4ccccc4)CC3C2)cn1 (stereo not drawn) [compound 18] | 1.6 µg/mL (≈ 3.59 µM)
2 | Cc1cc(C(=O)Nc2ccc(/C=C/C(=O)N3CC4C=C(c5ccccc5)CC4C3)cn2)c(C)o1 (stereo not drawn) [compound 19] | 1.61 µg/mL (≈ 3.55 µM)
3 | COc1cncc(C(=O)Nc2ccc(/C=C/C(=O)N3CC4C=C(c5ccncc5)CC4C3)cn2)c1 (stereo not drawn) [compound 30] | < 0.23 µg/mL
4 | COc1cncc(C(=O)Nc2ccc(/C=C/C(=O)N3CC4C=C(c5ccnn5C)CC4C3)cn2)c1 (stereo not drawn) [compound 31] | 0.72 µg/mL (≈ 1.53 µM)
5 | COc1cncc(C(=O)Nc2ccc(/C=C/C(=O)N3CC4C=C(c5nccs5)CC4C3)cn2)c1 (stereo not drawn) [compound 32] | < 0.23 µg/mL
6 | COc1cncc(C(=O)Nc2ccc(/C=C/C(=O)N3CC4C=C(c5ccsc5)CC4C3)cn2)c1 (stereo not drawn) [compound 33] | < 0.23 µg/mL

Molecular target: T1, S. aureus ATCC 29213 FabI (Staphylococcus aureus, UniProt Q6GI75)
T1 sequence (Q6GI75 1-256): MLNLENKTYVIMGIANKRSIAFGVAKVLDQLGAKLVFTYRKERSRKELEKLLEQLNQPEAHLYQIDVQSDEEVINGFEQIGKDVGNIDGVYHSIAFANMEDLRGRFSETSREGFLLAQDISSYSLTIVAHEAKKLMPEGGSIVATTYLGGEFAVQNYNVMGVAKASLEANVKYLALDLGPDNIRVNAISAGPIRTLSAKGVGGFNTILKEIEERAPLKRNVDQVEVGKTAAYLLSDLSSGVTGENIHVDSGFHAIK
Assay: Staphylococcus aureus FabI enzyme inhibition assay
Type: biochemical
Conditions: read-out: FabI (300.235) IC50 (converted)
Protocol: Y.1 FabI Enzyme Inhibition: Staphylococcus aureus FabI Enzyme Inhibition Assay
FabI enzyme inhibition assays were carried out in half-area, 384-well microtitre plates. Compounds were evaluated in 40-μl assay mixtures containing 100 mM NaADA, pH 6.5 (ADA=N-[2-acetamido]-2iminodiacetic acid), 250 μM crotonoyl-CoA, 625 μM NADH and 50 μg/ml S. aureus ATCC 29213 FabI. Inhibitors were typically varied over the range of 50 to 0.39 μM. The reaction mixtures were incubated for 30 minutes at room temperature and the reaction was stopped by adding 200 mM Tris buffer (pH 9.0) to create a pH-shift. The consumption of NADH was monitored by measuring the change in absorbance at […]. By comparing sample readings to those of negative (absence of compound) and positive (absence of enzyme) controls, the percent inhibition of enzymatic activity of the compounds was determined A best-fit curve is fitted by a minimum of squares method. From this an IC50-value (expressed in μg/ml), resulting in 50% inhibition of enzymatic activity, was obtained.

Row | Compound | IC50
7 | COC(=O)CCC(=O)Nc1ccc(/C=C/C(=O)N2CC3C=C(c4ccccc4)CC3C2)cn1 (stereo not drawn) [compound 18] | 2.56 µM
8 | Cc1cc(C(=O)Nc2ccc(/C=C/C(=O)N3CC4C=C(c5ccccc5)CC4C3)cn2)c(C)o1 (stereo not drawn) [compound 19] | 4.67 µM
9 | COc1cncc(C(=O)Nc2ccc(/C=C/C(=O)N3CC4C=C(c5ccncc5)CC4C3)cn2)c1 (stereo not drawn) [compound 30] | 1.39 µM
10 | COc1cncc(C(=O)Nc2ccc(/C=C/C(=O)N3CC4C=C(c5ccnn5C)CC4C3)cn2)c1 (stereo not drawn) [compound 31] | 0.659 µM
11 | COc1cncc(C(=O)Nc2ccc(/C=C/C(=O)N3CC4C=C(c5nccs5)CC4C3)cn2)c1 (stereo not drawn) [compound 32] | 0.718 µM
12 | COc1cncc(C(=O)Nc2ccc(/C=C/C(=O)N3CC4C=C(c5ccsc5)CC4C3)cn2)c1 (stereo not drawn) [compound 33] | 1.29 µM

System: S. aureus
Assay: Antibacterial susceptibility testing, IC90 determination with 10% human serum (STA + 10% HS)
Type: cell-based, Staphylococcus aureus
Conditions: Staphylococcus aureus, human serum at final concentration of 10%, read-out: STA + 10% HS (361.169) IC90
Protocol: as §1, §2, §3
The results are depicted in the table(s) below (STA+10% HS).

Row | Compound | IC90
13 | COC(=O)CCC(=O)Nc1ccc(/C=C/C(=O)N2CC3C=C(c4ccccc4)CC3C2)cn1 (stereo not drawn) [compound 18] | 3.05 µg/mL
14 | Cc1cc(C(=O)Nc2ccc(/C=C/C(=O)N3CC4C=C(c5ccccc5)CC4C3)cn2)c(C)o1 (stereo not drawn) [compound 19] | 16.1 µg/mL
15 | COc1cncc(C(=O)Nc2ccc(/C=C/C(=O)N3CC4C=C(c5ccncc5)CC4C3)cn2)c1 (stereo not drawn) [compound 30] | < 0.23 µg/mL
16 | COc1cncc(C(=O)Nc2ccc(/C=C/C(=O)N3CC4C=C(c5ccnn5C)CC4C3)cn2)c1 (stereo not drawn) [compound 31] | 0.86 µg/mL
17 | COc1cncc(C(=O)Nc2ccc(/C=C/C(=O)N3CC4C=C(c5nccs5)CC4C3)cn2)c1 (stereo not drawn) [compound 32] | < 0.23 µg/mL
18 | COc1cncc(C(=O)Nc2ccc(/C=C/C(=O)N3CC4C=C(c5ccsc5)CC4C3)cn2)c1 (stereo not drawn) [compound 33] | < 0.23 µg/mL

System: not given
Assay: not given
Conditions: not given

Row | Compound | melting point
19 | COC(=O)CCC(=O)Nc1ccc(/C=C/C(=O)N2CC3C=C(c4ccccc4)CC3C2)cn1 (stereo not drawn) [compound 18] | 216 °C and 216.42 °C
20 | Cc1cc(C(=O)Nc2ccc(/C=C/C(=O)N3CC4C=C(c5ccccc5)CC4C3)cn2)c(C)o1 (stereo not drawn) [compound 19] | 184.41 °C
21 | COc1cncc(C(=O)Nc2ccc(/C=C/C(=O)N3CC4C=C(c5ccncc5)CC4C3)cn2)c1 (stereo not drawn) [compound 30] | 142 °C
22 | COc1cncc(C(=O)Nc2ccc(/C=C/C(=O)N3CC4C=C(c5ccnn5C)CC4C3)cn2)c1 (stereo not drawn) [compound 31] | 89.36 °C
23 | COc1cncc(C(=O)Nc2ccc(/C=C/C(=O)N3CC4C=C(c5nccs5)CC4C3)cn2)c1 (stereo not drawn) [compound 32] | 207 °C
24 | COc1cncc(C(=O)Nc2ccc(/C=C/C(=O)N3CC4C=C(c5ccsc5)CC4C3)cn2)c1 (stereo not drawn) [compound 33] | 205 °C

System: not listed separately
Assay: Cytotoxicity MTT assay (HELAM)
Type: cell-based, Human
Conditions: human, HelaM cells, read-out: HELAM (222.125) CC50
Protocol: Cytotoxicity of the compounds was evaluated using the MTT assay. Human HelaM cells grown in 96-well plates were exposed to serial dilutions of the tested compounds (final volume of 0.2 ml) and incubated for 72 hours at 37° C. and 5% CO2. Inhibitors are typically varied over the range of 25 to 0.8 μM. The final DMSO concentration in the assay is 0.5%. MTT (3-(4,5-Dimethylthiazol-2-yl)-2,5-diphenyltetrazolium bromide, a tetrazole) was added and reduced to purple formazan only in living cells. Solubilization of the formazan crystals was achieved by adding 100 μl 2-propanol. Cell viability was determined by measuring the absorbance of the reduced formazan, giving a purple color, at 540 nm and 690 nm. The absorbance measured at 690 nm was automatically subtracted from the absorbance at 540 nm, to eliminate the effects of non-specific absorption. The percent cytotoxicity achieved by the compounds was calculated according to standard methods. Cytotoxicity is reported as CC50, the concentration that causes a 50% reduction in cell viability.
The results are depicted in the table(s) below (HELAM).

Row | Compound | CC50 at 72 h
25 | COC(=O)CCC(=O)Nc1ccc(/C=C/C(=O)N2CC3C=C(c4ccccc4)CC3C2)cn1 (stereo not drawn) [compound 18] | > 11.2 µg/mL
26 | Cc1cc(C(=O)Nc2ccc(/C=C/C(=O)N3CC4C=C(c5ccccc5)CC4C3)cn2)c(C)o1 (stereo not drawn) [compound 19] | 10.8 µg/mL (≈ 23.7 µM)
27 | COc1cncc(C(=O)Nc2ccc(/C=C/C(=O)N3CC4C=C(c5ccncc5)CC4C3)cn2)c1 (stereo not drawn) [compound 30] | > 11.7 µg/mL
28 | COc1cncc(C(=O)Nc2ccc(/C=C/C(=O)N3CC4C=C(c5ccnn5C)CC4C3)cn2)c1 (stereo not drawn) [compound 31] | > 11.8 µg/mL
29 | COc1cncc(C(=O)Nc2ccc(/C=C/C(=O)N3CC4C=C(c5nccs5)CC4C3)cn2)c1 (stereo not drawn) [compound 32] | > 11.9 µg/mL
30 | COc1cncc(C(=O)Nc2ccc(/C=C/C(=O)N3CC4C=C(c5ccsc5)CC4C3)cn2)c1 (stereo not drawn) [compound 33] | > 11.9 µg/mL

Source: US9315522B2, “Antibacterial compounds” (JANSSEN SCIENCES IRELAND UC, priority 2012, dated 2016)
